Test [1] concerns Intraspleenic-injected HCT116 liver and lung metastases. As to the kind of experiment: Intraspleenic tumor model (metastasis). In kind it is in vivo, mice. The following applies: 150 mg/kg IP daily, three weeks. As for the experimental part: Intraspleenic-injected HCT116 liver and lung metastases in NOD.Cg-Prkdcscid Il2rgtm1Wjl/SzJ mice (Jackson Laboratory, Bar Harbor, ME, USA) were generated as described in Erikson et. al.. J-series compounds were solubilized in 1:1 DMSO/Cremophor EL (Sigma-Aldrich) and diluted 2.3-fold in water to a final concentration of 7.5 mg/ml. 400 μl of this formulation (150 mg/kg) was injected intraperitoneally (IP) once a day for three weeks, beginning the third day post-surgery. Mice were sacrificed after the treatment and the liver, lungs, and spleen sampled. DNA was extracted from organs with the DNeasy Blood & Tissue Kit (Qiagen). The qPCR assay used for quantification of human DNA in mouse organs has been described. All mouse protocols were designed in accordance with the NIH Guide for the Care and Use of Laboratory Animals and approved by the Institutional Animal Care and Use Committee.

Another test has as its target T1, p110δ (Homo sapiens, UniProt O00329).
T1 construct: His-tag; made in house; host or cells: Sf9 insect cells (baculovirus)
The experiment in a line: Biochemical PI3K inhibition assay, p110δ. The following applies: 10 μM ATP, two hours. From the text: cDNA clones of PIK3CA, PIK3CB and PIK3CG were obtained from Origene (Rockville, MD, USA). PIK3CD was generously provided by Novartis Pharmaceuticals. The cDNA clones were sub-cloned into pFastBac His-Tag (Invitrogen, Carlsbad, CA, USA) and baculovirus clones were generated by the Bac-to-Bac expression system (Invitrogen). p110α, p110β and p110δ were co-expressed in Sf9 insect cells (Invitrogen) with a nSH2-iSH2 fragment of the regulatory subunit p85 comprising AA residues 322 to 600 [4]. p110γ was expressed without a regulatory subunit. Sf9 cells were lysed in a buffer containing 50 mM sodium phosphate, pH 8.0, 400 mM NaCl, 5% glycerol, 1% Triton X-100, 10 mM 2-mercaptoethanol, 1 mM orthovanadate, 10 mM imidazole, and sonicated on ice for 1 minute. Proteins were purified by adding Ni-NTA Superflow beads (Qiagen, Valencia, CA, USA) to the lysate and subsequent rolling for 30 min at 4°C. Beads were washed twice with 50 mM phosphate buffer, pH 8.0, 0.5 M NaCl, 50 mM Imidazole, 2 mM DTT and eluted in the same buffer but with 200 mM imidazole. Purified PI3K's were mixed 1:1 with glycerol and stored at -20°C.
(§1) J-series inhibitors were dissolved, serial diluted in DMSO and deposited into 96 well plates at a final DMSO concentration of 1%. We used a novel assay to determine their potency and selectivity. In brief, micelles of 2.5 μg L-a-Phosphatidylinositol and 2.5 μg 1,2-Diacyl-sn-glycero-3-phospho-L-serine were formed by sonication, mixed with the individual PI3K isoforms and added to the drug dilutions in a reaction buffer containing 10 mM HEPES, 25 mM NaCl, 0.125 μg/μl BSA, and 2 mM BME (final concentrations). Reactions were timed after the addition of 10 μM ATP with 40 μCi/ml γ-32P-ATP (PerkinElmer, Waltham, MA, USA) and 2 mM MgCl2 (all final concentrations). The reactions were terminated after two hours by the addition of 2 N HCl and the lipids extracted with 1:1 MetOH/Chloroform. Radio-labeled phosphatidyl-inositol-3-phosphate in the extracted organic fraction was quantified after the addition of Microscint O (PerkinElmer) using a TopCount 96 well plate scintillation counter (PerkinElmer). IC50 concentrations and inhibition curves were calculated using Prism 5 (GraphPad Software, La Jolla, CA).

The target of the next test is T2, p110α (Homo sapiens, UniProt P42336).
T2 construct: His-tag; made in house; host or cells: Sf9 insect cells (baculovirus)
As to the kind of experiment: Biochemical PI3K inhibition assay, p110α. How it is done:
PIK3CD was generously provided by Novartis Pharmaceuticals. […] Sf9 cells were lysed in a buffer containing 50 mM sodium phosphate, pH 8.0, 400 mM NaCl, 5% glycerol, 1% Triton X-100, 10 mM 2-mercaptoethanol, 1 mM orthovanadate, 10 mM imidazole, and sonicated on ice for 1 minute. Proteins were purified by adding Ni-NTA Superflow beads (Qiagen, Valencia, CA, USA) to the lysate and subsequent rolling for 30 min at 4°C. Beads were washed twice with 50 mM phosphate buffer, pH 8.0, 0.5 M NaCl, 50 mM Imidazole, 2 mM DTT and eluted in the same buffer but with 200 mM imidazole. Purified PI3K's were mixed 1:1 with glycerol and stored at -20°C.
as §1, with “In brief, micelles of 2.5 μg L-a-Phosphatidylinositol and 2.5 μg 1,2-Diacyl-sn-glycero-3-phospho-L-serine were formed by sonication, mixed with the individual PI3K isoforms and added to the drug dilutions in a reaction buffer containing 10 mM HEPES, 25 mM NaCl, 0.125 μg/μl BSA, and 2 mM BME (final concentrations).” left out

For another test, the target named is T3, ACK1 (Homo sapiens, UniProt Q07912).
T3 construct: purchased Millipore (KinaseProfiler service)
As to the kind of experiment: Millipore KinaseProfiler. In kind it is biochemical. The following applies: read-out: % of control. From the text: (§2) Supplement oncotarget-01-339-s001.doc, table 1: Supplementary Table 1. Millipore KinaseProfiler excerpt | column: % of control

Another test has as its target T4, EGFR(T790M,L858R) (Homo sapiens, UniProt P00533, L858R/T790M).
T4 construct: purchased Millipore (KinaseProfiler service)
The experiment in a line: Millipore KinaseProfiler. The following applies: read-out: % of control. In kind it is biochemical.
Source text: as §2

In another test the target is T5, Haspin (Homo sapiens, UniProt Q8TF76).
T5 construct: purchased Millipore (KinaseProfiler service)
The experiment in a line: Millipore KinaseProfiler. In kind it is biochemical. The following applies: read-out: % of control.
Source text: as §2

A further test concerns the target T6, Yes (Homo sapiens, UniProt P07947).
T6 construct: purchased Millipore (KinaseProfiler service)
As to the kind of experiment: Millipore KinaseProfiler. In kind it is biochemical. As to conditions: read-out: % of control.
Source text: as §2

A further test concerns the target T7, LIMK1 (Homo sapiens, UniProt P53667).
T7 construct: purchased Millipore (KinaseProfiler service)
The experiment in a line: Millipore KinaseProfiler. As to conditions: read-out: % of control. In kind it is biochemical.
Source text: as §2

Another test deals with T8, TrkA (Homo sapiens, UniProt P04629).
T8 construct: purchased Millipore (KinaseProfiler service)
As to the kind of experiment: Millipore KinaseProfiler. The following applies: read-out: % of control. In kind it is biochemical.
Source text: as §2

A further test addresses T9, MELK (Homo sapiens, UniProt Q14680).
T9 construct: purchased Millipore (KinaseProfiler service)
As to the kind of experiment: Millipore KinaseProfiler. The following applies: read-out: % of control. In kind it is biochemical.
Source text: as §2

A further test concerns the target T10, Src(1-530) (Homo sapiens, UniProt P12931).
T10 construct: Src(1-530); purchased Millipore (KinaseProfiler service)
The experiment in a line: Millipore KinaseProfiler. In kind it is biochemical. The following applies: read-out: % of control.
Source text: as §2

The next test concerns the target T11, Mer (Homo sapiens, UniProt Q12866).
T11 construct: purchased Millipore (KinaseProfiler service)
The experiment in a line: Millipore KinaseProfiler. In kind it is biochemical. As to conditions: read-out: % of control.
Source text: as §2

A further test has as its target T12, TBK1 (Homo sapiens, UniProt Q9UHD2).
T12 construct: purchased Millipore (KinaseProfiler service)
The experiment in a line: Millipore KinaseProfiler. In kind it is biochemical. As to conditions: read-out: % of control.
Source text: as §2

In general, IC50 refers to the midpoint of a concentration-inhibition curve. Low values mean greater potency in that assay, high ones weaker potency in that assay.

T2 sequence (P42336 whole entry): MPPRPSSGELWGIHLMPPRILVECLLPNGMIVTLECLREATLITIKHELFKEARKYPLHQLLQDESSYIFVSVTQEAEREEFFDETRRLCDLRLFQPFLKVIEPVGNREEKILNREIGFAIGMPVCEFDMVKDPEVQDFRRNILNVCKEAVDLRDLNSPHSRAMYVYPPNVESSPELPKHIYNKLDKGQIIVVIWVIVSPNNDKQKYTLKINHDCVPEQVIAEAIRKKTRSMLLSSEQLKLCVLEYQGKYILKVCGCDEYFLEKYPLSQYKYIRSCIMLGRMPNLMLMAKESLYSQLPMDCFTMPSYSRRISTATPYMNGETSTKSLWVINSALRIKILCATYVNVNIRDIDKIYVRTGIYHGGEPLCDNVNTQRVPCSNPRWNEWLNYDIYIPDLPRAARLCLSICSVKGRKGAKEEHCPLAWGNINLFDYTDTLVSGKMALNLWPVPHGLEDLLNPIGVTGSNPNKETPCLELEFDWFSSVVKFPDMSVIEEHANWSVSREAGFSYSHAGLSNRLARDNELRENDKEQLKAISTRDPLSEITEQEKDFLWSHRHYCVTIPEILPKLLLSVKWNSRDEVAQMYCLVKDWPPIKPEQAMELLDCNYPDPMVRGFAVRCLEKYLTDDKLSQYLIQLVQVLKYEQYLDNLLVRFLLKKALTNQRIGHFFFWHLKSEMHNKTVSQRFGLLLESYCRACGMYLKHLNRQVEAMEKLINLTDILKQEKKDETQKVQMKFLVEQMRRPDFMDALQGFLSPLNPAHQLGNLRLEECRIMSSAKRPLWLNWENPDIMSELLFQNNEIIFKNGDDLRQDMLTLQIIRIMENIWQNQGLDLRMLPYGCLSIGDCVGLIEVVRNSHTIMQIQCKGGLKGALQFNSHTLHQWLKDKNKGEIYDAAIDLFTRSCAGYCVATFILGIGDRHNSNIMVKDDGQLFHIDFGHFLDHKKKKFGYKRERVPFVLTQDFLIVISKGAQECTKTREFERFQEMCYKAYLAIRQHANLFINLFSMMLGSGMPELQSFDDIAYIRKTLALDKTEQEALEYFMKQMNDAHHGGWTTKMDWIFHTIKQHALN
T2 sequence (P27986 322-600 partner limits assumed): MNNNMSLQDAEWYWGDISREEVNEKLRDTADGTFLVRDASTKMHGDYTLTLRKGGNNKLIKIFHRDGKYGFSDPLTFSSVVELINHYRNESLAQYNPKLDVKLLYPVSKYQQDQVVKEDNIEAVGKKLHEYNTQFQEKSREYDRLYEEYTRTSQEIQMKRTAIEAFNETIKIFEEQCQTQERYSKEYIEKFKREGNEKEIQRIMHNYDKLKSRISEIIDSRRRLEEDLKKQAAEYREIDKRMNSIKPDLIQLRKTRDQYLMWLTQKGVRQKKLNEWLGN
T6 sequence (P07947 whole entry): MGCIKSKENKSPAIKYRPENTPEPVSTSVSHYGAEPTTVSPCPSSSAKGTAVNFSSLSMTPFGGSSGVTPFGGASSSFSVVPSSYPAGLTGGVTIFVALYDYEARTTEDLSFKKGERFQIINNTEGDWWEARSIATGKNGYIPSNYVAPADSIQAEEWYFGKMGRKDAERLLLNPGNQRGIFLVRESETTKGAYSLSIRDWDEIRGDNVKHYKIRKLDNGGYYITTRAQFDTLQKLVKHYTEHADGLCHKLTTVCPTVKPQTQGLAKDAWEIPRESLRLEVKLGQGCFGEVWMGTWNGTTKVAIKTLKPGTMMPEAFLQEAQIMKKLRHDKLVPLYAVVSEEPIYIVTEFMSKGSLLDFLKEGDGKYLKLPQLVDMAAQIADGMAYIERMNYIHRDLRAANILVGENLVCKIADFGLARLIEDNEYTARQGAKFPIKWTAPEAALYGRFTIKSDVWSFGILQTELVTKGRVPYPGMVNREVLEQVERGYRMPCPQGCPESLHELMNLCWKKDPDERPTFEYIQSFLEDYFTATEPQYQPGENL
T9 sequence (Q14680 whole entry): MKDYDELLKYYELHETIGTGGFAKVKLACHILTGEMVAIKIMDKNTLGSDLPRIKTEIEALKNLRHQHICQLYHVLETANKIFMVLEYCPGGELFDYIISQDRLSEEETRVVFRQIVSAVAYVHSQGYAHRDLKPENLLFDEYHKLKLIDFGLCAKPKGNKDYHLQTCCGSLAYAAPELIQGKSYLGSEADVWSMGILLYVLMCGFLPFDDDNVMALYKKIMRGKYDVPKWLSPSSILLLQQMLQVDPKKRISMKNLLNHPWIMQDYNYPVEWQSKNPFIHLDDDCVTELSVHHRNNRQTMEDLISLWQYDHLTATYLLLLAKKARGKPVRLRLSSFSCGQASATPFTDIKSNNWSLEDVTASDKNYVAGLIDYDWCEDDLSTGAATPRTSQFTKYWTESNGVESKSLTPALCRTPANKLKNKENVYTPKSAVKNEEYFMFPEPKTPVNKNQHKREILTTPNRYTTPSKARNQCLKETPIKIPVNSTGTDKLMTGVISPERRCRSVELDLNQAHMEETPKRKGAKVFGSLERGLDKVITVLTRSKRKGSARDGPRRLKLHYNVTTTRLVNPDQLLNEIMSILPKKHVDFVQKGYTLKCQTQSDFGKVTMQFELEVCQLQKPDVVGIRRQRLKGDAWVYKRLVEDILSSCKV
T7 sequence (P53667 whole entry): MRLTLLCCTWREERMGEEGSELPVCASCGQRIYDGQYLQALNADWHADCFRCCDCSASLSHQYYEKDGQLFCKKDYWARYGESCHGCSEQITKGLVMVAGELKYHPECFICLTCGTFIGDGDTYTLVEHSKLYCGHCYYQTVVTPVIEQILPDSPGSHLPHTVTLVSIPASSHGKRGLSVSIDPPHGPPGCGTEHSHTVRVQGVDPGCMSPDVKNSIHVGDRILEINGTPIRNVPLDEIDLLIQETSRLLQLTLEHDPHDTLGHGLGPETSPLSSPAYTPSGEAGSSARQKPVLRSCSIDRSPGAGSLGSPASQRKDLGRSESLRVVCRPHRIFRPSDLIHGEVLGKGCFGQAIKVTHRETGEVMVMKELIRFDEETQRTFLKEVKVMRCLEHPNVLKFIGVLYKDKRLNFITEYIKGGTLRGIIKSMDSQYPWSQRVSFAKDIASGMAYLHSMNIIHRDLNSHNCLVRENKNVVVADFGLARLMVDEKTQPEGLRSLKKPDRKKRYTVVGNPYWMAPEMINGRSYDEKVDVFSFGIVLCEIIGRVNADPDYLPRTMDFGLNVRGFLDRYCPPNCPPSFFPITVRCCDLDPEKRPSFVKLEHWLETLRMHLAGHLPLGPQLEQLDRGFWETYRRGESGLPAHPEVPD
T4 sequence (P00533 25-1210 T790M/L858R): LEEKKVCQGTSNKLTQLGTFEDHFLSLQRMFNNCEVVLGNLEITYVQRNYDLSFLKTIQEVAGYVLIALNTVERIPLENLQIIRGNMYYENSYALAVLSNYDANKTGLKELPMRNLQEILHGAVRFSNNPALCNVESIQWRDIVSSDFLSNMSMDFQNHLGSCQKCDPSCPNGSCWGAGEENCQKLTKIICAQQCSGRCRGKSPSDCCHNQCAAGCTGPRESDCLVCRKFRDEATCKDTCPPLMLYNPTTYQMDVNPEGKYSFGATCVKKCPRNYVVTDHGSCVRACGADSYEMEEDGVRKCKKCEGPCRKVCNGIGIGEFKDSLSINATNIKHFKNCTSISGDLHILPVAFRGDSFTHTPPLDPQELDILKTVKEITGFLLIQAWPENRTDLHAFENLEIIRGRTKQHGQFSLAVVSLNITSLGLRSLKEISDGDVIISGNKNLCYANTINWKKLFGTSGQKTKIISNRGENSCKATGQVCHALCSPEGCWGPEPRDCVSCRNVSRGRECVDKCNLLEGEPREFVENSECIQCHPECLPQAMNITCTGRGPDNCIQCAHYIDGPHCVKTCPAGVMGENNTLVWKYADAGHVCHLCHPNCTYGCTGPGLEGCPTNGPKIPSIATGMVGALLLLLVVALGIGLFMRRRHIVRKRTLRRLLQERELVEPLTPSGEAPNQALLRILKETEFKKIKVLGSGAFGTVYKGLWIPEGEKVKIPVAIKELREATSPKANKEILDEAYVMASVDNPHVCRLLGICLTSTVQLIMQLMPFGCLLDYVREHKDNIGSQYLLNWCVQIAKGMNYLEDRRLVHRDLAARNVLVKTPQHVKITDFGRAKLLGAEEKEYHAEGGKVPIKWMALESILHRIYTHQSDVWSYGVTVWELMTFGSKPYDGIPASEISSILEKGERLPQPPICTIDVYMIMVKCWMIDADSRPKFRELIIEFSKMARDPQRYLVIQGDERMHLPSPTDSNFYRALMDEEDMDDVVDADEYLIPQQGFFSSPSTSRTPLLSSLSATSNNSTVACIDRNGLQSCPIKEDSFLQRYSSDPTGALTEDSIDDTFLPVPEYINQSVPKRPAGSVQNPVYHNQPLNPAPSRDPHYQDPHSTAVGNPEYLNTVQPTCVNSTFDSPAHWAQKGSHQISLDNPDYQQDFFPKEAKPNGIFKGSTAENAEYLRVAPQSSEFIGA
T10 sequence (P12931 1-530): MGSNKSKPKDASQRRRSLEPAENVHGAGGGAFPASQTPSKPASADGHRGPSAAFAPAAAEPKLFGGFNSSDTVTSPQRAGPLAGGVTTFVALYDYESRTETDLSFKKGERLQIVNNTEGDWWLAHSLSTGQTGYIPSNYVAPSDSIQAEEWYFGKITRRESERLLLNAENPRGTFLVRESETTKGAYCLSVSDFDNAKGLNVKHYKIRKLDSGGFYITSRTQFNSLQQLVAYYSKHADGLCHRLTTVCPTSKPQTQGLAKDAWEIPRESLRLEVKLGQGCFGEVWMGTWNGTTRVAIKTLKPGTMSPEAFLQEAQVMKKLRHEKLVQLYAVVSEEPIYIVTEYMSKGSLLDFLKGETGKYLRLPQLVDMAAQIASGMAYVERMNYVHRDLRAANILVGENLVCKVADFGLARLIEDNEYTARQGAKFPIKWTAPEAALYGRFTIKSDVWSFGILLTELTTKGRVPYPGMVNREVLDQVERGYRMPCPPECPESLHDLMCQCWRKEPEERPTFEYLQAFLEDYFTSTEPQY

Turning to `CCN(/N=C/c1cnc2ccc(Br)cn12)S(=O)(=O)c1cc([N+](=O)[O-])c(NC(=O)C(F)(F)F)cc1C` [J124], the “metastatic lesions in the lungs” value in [1] was “no lesions”. In addition, the “metastatic foci in the liver (histopathology)” value in test [1] (compared to vehicle) was “few, if any, metastatic foci”. Also, the “reduction in primary tumor burden in the spleen (real-time PCR)” value in test [1] (compared to vehicle) is ~ 50%. In test [1] (compared to vehicle), the “reduction of metastatic liver burden (real-time PCR)” value was 13 fold. For the same compound, the concentration for half-maximal inhibition (IC50) on p110δ was found to be 160 nM; against p110α (10 μM ATP, two hours) it was 11 nM. For the same compound, at p110α (compared to J32), the “increase of inhibitory activity for PI3Kα” value is 1.4 fold. Also, the remaining activity at 0.011 µM is 30% on ACK1; 46% at EGFR(T790M,L858R); -1% on Haspin; 40% at Yes; 36% on LIMK1; 11% on TrkA. For the same compound, the remaining activity at 0.011 µM was determined as 23% on MELK, 48% at Src(1-530), 33% at Mer and 46% at TBK1.

(Values after article PMC3004370, “PI3Kα Inhibitors That Inhibit Metastasis” (Oncotarget, 2010).)
